Data from ChEMBL document CHEMBL6120968, “Discovery of Thiadiazoleamide Derivatives as Potent, Selective, and Orally Available Antagonists Disrupting Androgen Receptor Homodimer” (J Med Chem, 2024).

Columns and labels:
hERG (KCNH2) = hERG (KCNH2) (Homo sapiens, UniProt Q12809); assay: Inhibition of hERG at 10 uM relative to control; type: toxicity
[1] = Antiproliferative activity against human WPMY-1 cells assessed as reduction in cell viability upto 2 uM incubated for 3 days by MTT assay; type: toxicity, cell-based; conditions: wpmy-1, 72 h, time 3 day
[2] = target: T1, Mineralocorticoid receptor (Homo sapiens, UniProt P08235); assay: Agonist activity at Mineralocorticoid receptor (unknown origin)
T1 sequence (P08235 whole entry): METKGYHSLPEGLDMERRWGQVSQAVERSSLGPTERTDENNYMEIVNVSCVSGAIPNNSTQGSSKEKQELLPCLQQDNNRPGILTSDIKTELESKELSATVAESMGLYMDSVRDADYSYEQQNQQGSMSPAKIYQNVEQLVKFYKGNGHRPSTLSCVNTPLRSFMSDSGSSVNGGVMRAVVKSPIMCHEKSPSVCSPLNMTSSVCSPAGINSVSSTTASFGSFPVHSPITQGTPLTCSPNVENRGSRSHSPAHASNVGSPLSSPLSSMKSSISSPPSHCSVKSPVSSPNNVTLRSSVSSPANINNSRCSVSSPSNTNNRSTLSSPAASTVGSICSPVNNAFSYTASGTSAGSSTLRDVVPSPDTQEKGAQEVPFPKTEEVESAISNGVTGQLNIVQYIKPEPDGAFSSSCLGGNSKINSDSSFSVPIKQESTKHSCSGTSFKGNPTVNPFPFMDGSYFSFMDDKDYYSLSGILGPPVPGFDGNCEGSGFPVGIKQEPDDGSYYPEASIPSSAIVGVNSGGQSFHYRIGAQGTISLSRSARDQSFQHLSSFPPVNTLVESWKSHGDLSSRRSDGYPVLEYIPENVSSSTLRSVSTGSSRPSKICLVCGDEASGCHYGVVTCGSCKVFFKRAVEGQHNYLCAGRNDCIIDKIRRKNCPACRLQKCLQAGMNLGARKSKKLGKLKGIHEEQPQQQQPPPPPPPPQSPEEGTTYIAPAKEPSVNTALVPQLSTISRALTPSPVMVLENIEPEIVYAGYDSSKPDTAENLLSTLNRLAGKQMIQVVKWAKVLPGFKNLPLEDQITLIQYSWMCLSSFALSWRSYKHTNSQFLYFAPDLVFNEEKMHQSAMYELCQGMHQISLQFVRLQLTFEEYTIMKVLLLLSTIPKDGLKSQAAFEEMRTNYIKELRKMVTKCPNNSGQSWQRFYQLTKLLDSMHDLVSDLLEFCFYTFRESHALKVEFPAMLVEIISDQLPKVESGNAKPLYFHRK

Progesterone receptor = target: T2, Progesterone receptor (Homo sapiens, UniProt P06401); assay: Agonist activity at progesterone receptor (unknown origin)
T2 sequence (P06401 whole entry): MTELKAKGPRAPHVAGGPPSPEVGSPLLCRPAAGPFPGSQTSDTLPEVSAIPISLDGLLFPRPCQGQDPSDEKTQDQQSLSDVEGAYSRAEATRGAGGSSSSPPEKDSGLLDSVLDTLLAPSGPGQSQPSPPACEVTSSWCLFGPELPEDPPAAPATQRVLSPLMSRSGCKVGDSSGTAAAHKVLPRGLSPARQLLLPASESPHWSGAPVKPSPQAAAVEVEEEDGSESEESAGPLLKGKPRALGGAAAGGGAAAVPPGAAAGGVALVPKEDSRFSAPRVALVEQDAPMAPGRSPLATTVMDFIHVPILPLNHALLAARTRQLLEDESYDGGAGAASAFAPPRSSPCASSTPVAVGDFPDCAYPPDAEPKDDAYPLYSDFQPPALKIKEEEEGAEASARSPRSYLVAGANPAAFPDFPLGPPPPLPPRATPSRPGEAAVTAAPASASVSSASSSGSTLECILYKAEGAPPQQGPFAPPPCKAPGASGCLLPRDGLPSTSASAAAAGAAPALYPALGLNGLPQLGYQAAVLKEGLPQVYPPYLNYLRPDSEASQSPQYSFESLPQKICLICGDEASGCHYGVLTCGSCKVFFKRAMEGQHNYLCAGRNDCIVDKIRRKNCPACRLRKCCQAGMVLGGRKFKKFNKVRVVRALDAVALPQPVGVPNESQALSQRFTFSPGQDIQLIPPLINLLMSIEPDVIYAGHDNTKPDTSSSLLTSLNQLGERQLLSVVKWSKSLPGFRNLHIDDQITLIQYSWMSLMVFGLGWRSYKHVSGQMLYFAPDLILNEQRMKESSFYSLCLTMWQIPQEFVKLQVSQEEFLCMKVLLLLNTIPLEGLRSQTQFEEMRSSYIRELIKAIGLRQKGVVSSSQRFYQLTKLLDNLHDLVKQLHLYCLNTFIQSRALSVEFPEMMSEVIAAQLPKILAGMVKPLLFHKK

[3] = Cmax in rat at 20 mg/kg, iv by LC-MS/MS analysis; type: ADME, organism-based; conditions: in vivo
[4] = AUC (0 to t) in rat at 20 mg/kg, po by LC-MS/MS analysis; type: ADME, organism-based; conditions: in vivo
[5] = AUC (0 to t) in rat at 20 mg/kg, iv by LC-MS/MS analysis; type: ADME, organism-based; conditions: in vivo
[6] = AUC (0 to infinity) in rat at 20 mg/kg, po by LC-MS/MS analysis; type: ADME, organism-based; conditions: in vivo
[7] = Observed apparent volume of distribution during terminal phase in rat at 20 mg/kg, iv by LC-MS/MS analysis; type: ADME, organism-based; conditions: in vivo
[8] = MRTlast in rat at 20 mg/kg, po by LC-MS/MS analysis; type: ADME, organism-based; conditions: in vivo
[9] = Oral bioavailability in rat at 20 mg/kg by LC-MS/MS analysis; type: ADME, organism-based; conditions: in vivo
[10] = Microsomal stability in human liver microsome assessed as half life measured upto 60 mins in presence of NADPH and UDPGA by HPLC-MS/MS analysis; type: ADME; conditions: liver microsomes
[11] = Microsomal stability in rat liver microsome assessed as half life measured upto 60 mins in presence of NADPH and UDPGA by HPLC-MS/MS analysis; type: ADME; conditions: liver microsomes
[12] = Microsomal stability in Beagle dog liver microsome assessed as intrinsic clearance measured upto 60 mins in presence of NADPH and UDPGA by HPLC-MS/MS analysis; type: ADME, Canis lupus familiaris; conditions: liver microsomes, read-out: CLH
[13] = Microsomal stability in rat liver microsome assessed as intrinsic clearance measured upto 60 mins in presence of NADPH and UDPGA by HPLC-MS/MS analysis; type: ADME; conditions: liver microsomes, read-out: CLH
[14] = Microsomal stability in mouse liver microsome assessed as intrinsic clearance measured upto 60 mins in presence of NADPH and UDPGA by HPLC-MS/MS analysis; type: ADME; conditions: liver microsomes, read-out: CLH
[15] = Microsomal stability in monkey liver microsome assessed as parent compound remaining at 60 mins in presence of NADPH and UDPGA by HPLC-MS/MS analysis; type: ADME, Macaca mulatta; conditions: rhesus monkey, liver microsomes, read-out: Stability
[16] = Microsomal stability in Beagle dog liver microsome assessed as parent compound remaining at 60 mins in presence of NADPH and UDPGA by HPLC-MS/MS analysis; type: ADME, Canis lupus familiaris; conditions: liver microsomes, read-out: Stability

Chain of hERG (KCNH2) (Q12809 whole entry): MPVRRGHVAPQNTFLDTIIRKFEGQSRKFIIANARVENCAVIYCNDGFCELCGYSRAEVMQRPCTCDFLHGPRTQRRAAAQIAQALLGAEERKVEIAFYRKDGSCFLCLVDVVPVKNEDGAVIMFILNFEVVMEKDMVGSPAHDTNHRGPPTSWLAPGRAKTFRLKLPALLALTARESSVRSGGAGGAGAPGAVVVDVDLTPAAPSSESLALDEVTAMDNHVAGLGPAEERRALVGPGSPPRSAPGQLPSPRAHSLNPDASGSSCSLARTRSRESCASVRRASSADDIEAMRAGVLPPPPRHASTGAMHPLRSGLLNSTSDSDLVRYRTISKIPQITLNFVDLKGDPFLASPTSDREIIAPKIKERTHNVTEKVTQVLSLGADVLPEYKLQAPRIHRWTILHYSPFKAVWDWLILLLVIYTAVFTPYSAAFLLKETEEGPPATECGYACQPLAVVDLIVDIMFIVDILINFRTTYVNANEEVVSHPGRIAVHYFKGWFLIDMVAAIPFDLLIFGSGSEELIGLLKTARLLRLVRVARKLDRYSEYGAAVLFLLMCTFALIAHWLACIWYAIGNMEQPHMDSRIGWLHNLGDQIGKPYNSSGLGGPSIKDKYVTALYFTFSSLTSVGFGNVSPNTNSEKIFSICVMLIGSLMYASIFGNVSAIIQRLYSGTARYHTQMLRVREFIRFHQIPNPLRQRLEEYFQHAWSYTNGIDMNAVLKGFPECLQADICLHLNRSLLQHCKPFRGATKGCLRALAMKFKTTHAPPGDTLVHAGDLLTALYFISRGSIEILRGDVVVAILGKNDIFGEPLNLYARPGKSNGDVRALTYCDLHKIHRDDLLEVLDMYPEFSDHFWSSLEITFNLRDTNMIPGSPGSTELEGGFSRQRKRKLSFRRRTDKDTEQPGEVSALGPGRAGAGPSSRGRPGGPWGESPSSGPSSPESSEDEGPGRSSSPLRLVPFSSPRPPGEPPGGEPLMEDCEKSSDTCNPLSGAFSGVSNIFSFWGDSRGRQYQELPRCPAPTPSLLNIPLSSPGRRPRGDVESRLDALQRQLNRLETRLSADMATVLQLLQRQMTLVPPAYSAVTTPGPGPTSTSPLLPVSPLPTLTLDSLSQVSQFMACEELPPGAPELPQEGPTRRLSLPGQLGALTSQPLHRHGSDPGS

In the case of `Cc1oc(-c2cccc(C(F)(F)F)c2)cc1C(=O)Nc1nc(CN2CCOCC2)ns1`, the inhibition at 10 µM (hERG (KCNH2)) is reported as 20.7%, the Activity [1] is reported as “Non-toxic” and the IC50 [2] is reported as greater than 10 µM. It also gave an IC50 (Progesterone receptor) greater than 10 µM, a Cmax [3] of 8450 ng/mL and an AUC(0-t) [4] of 20500 ng·h/mL. The AUC(0-t) [5] was 32000 ng·h/mL, the AUC(0-inf) [6] was 22100 ng·h/mL and the Vz/F_obs [7] was 6.8 L/kg. The MRT last [8] was 399 min, the bioavailability [9] was 61.5% and the half-life [10] was 37.1 min. It also gave a half-life [11] of 29.6 min, a microsomal CLint [12] of 31.5 µL/min/mg and a microsomal CLint [13] of 23.4 µL/min/mg. It also gave a microsomal CLint [14] of 18 µL/min/mg, a remaining at 1 h [15] of 55.1% and a remaining at 1 h [16] of 12.6%.
